Data: patent US8247211B2, “Glycopeptide antibiotics” (American Cyanamid Company, priority 2001, dated 2012)
≈ marks a conversion by molar mass, not a printed value.

Legend:
[1] = system: Staphylococcus sp.; test: In vitro antibacterial evaluation: minimum inhibitory concentration (MIC), broth dilution method; format: cell-based
In short: (§1)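 MIC by broth dilution in Mueller-Hinton II medium following NCCLS M7-A2. Inoculum was 5×10^5 CFU/mL and antibiotic was tested over 64-0.06 μg/mL. Gram-positive panel included clinical isolates resistant to methicillin, penicillin and/or vancomycin.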

[2] = system: Enterococcus sp.; test: as above; format: cell-based; details: 18 hours at 35° C.
In short: as §1

[3] = system: Streptococcus sp.; test: as above; format: cell-based; details: 18 hours at 35° C.
In short: as §1

[4] = system: Escherichia coli; test: as above; format: cell-based; details: 18 hours at 35° C.
In short: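 Using Muller-Hinton II […] and an inoculum of 5×10^5 CFU/mL, antibiotic dilutions from 64 down to 0.06 μg/mL were tested following NCCLS M7-A2. The MIC is the lowest concentration inhibiting growth, including in methicillin-, penicillin- or vancomycin-resistant clinical isolates.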

[5] = system: Staphylococcus aureus-SMITH (GC 4543); test: Acute lethal infection in mice (ED50); format: in vivo; details: female CD-1 mice, intraperitoneal challenge, intravenous dose 30 min. after infection, 7 day survival ratios
In short: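 Groups of five female CD-1 mice per dose got intravenous antibiotic in saline or 5% dextrose half an hour after intraperitoneal infection sufficient to kill controls within 24-48 hr. Seven-day survival data from three experiments were combined to derive ED50.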

[6] = broth dilution, inoculum 5×10^5 CFU/mL
[7] = broth dilution, 5×10^5 CFU/mL, 18 hours at 35° C.

CCCOc1ccc(COCC2OC(OC3C(CO)OC(Oc4ccc(CC5NC(=O)C(C(C)c6ccccc6)NC(=O)CNC(=O)C(CO)NC(=O)C(C(O)C6CNC(=N)N6C6OC(CO)C(O)C(O)C6O)NC(=O)C(C(O)C6CNC(=N)N6)NC5=O)cc4)C(O)C3O)C(O)C(O)C2O)cc1 (stereo not drawn) [Example 235, Cyclo[glycyl-β-methylphenylalanyl-O-[4-O-[6-O-(4-propoxybenzyl)hexopyranosyl]hexopyranosyl]tyrosyl-3-(2-iminoimidazolidin-4-yl)seryl-3-(3-hexopyranosyl-2-iminoimidazolidin-4-yl)serylseryl]]
MIC Coagulase Negative Staphylococcus (GC 4547) ([1]; Coagulase Negative Staphylococcus (GC 4547), 18 hours at 35° C.): 0.5 to 1 µg/mL | MIC Coagulase Negative Staphylococcus (GC 4551) ([1]; Coagulase Negative Staphylococcus (GC 4551), 18 hours at 35° C.): 0.5 to 1 µg/mL | MIC Staphylococcus aureus (ATCC 29213) ([1]; Staphylococcus aureus (ATCC 29213), 18 hours at 35° C.): 0.5 to 1 µg/mL | MIC Staphylococcus aureus (GC 1131) ([1]; Staphylococcus aureus (GC 1131), 18 hours at 35° C.): 1 to 2 µg/mL | MIC Staphylococcus aureus (GC 3051) ([1]; Staphylococcus aureus (GC 3051), 18 hours at 35° C.): 0.5 to 2 µg/mL | MIC Staphylococcus aureus (GC 3053) ([1]; Staphylococcus aureus (GC 3053), 18 hours at 35° C.): 1 to 2 µg/mL | MIC Staphylococcus aureus (GC 4541) ([1]; Staphylococcus aureus (GC 4541), 18 hours at 35° C.): 0.5 to 1 µg/mL | MIC Staphylococcus aureus (GC 4542) ([1]; Staphylococcus aureus (GC 4542), 18 hours at 35° C.): 0.5 to 2 µg/mL | MIC Staphylococcus aureus (GC 4544) ([1]; Staphylococcus aureus (GC 4544), 18 hours at 35° C.): 1 to 2 µg/mL | MIC Staphylococcus aureus (GC 4545) ([1]; Staphylococcus aureus (GC 4545), 18 hours at 35° C.): 1 to 2 µg/mL | MIC Staphylococcus aureus-SMITH (GC 4543) ([1]; Staphylococcus aureus-SMITH (GC 4543), 18 hours at 35° C.): 0.5 to 1 µg/mL | MIC Enterococcus avium (GC 4558) ([2]; Enterococcus avium (GC 4558)): 4 µg/mL (≈ 2.77 µM) | MIC Enterococcus faecalis (ATCC 29212) ([2]; Enterococcus faecalis (ATCC 29212)): 4 µg/mL (≈ 2.77 µM) | MIC Enterococcus faecalis (GC 2242) ([2]; Enterococcus faecalis (GC 2242)): 4 µg/mL (≈ 2.77 µM) | MIC Enterococcus faecalis (GC 2691) ([2]; Enterococcus faecalis (GC 2691)): 4 µg/mL (≈ 2.77 µM) | MIC Enterococcus faecalis (GC 3059) ([2]; Enterococcus faecalis (GC 3059)): 4 to 8 µg/mL | MIC Enterococcus faecalis (GC 4552) ([2]; Enterococcus faecalis (GC 4552)): 4 µg/mL (≈ 2.77 µM) | MIC Enterococcus faecalis (GC 4553) ([2]; Enterococcus faecalis (GC 4553)): 4 µg/mL (≈ 2.77 µM) | MIC Enterococcus faecalis (GC 4554) ([2]; Enterococcus faecalis (GC 4554)): 4 to 8 µg/mL | MIC Enterococcus faecalis (GC 6189) ([2]; Enterococcus faecalis (GC 6189)): 4 µg/mL (≈ 2.77 µM) | MIC Enterococcus faecium (GC 2243) ([2]; Enterococcus faecium (GC 2243)): 4 µg/mL (≈ 2.77 µM) | MIC Enterococcus faecium (GC 4556) ([2]; Enterococcus faecium (GC 4556)): 4 µg/mL (≈ 2.77 µM) | MIC Enterococcus faecium (GC 4557) ([2]; Enterococcus faecium (GC 4557)): 0.5 to 2 µg/mL | MIC Enterococcus faecalis (GC 2242) [2, 6]: 4 µg/mL (≈ 2.77 µM) | MIC Enterococcus faecalis (GC 2691) [2, 6]: 4 µg/mL (≈ 2.77 µM) | MIC Enterococcus faecalis (GC 3059) [2, 6]: 4 to 8 µg/mL | MIC Streptococcus pneumoniae (ATCC 6301) ([3]; Streptococcus pneumoniae (ATCC 6301)): 0.12 µg/mL (≈ 0.0831 µM) | MIC Streptococcus pneumoniae (GC 1894) ([3]; Streptococcus pneumoniae (GC 1894)): <0.06 µg/mL | MIC Streptococcus pyogenes (GC 4563) ([3]; Streptococcus pyogenes (GC 4563)): 0.25 µg/mL (≈ 0.173 µM) | MIC Streptococcus pneumoniae (ATCC 6301) [3, 6]: 0.12 µg/mL (≈ 0.0831 µM) | MIC Streptococcus pneumoniae (GC 1894) [3, 6]: <0.06 µg/mL | MIC Streptococcus pyogenes (GC 4563) [3, 6]: 0.25 µg/mL (≈ 0.173 µM) | MIC Escherichia coli (GC 4560) ([4]; Escherichia coli (GC 4560)): 0.5 to 1 µg/mL | median effective dose (ED50), Staphylococcus aureus-SMITH (GC 4543) [5]: 0.59 mg/kg

COc1cccc(C2OCC3OC(OC4C(CO)OC(Oc5ccc(CC6NC(=O)C(C(C)c7ccccc7)NC(=O)CNC(=O)C(CO)NC(=O)C(C(O)C7CNC(=N)N7C7OC(CO)C(O)C(O)C7O)NC(=O)C(C(O)C7CNC(=N)N7)NC6=O)cc5)C(O)C4O)C(O)C(O)C3O2)c1 (stereo not drawn) [Example 137, Cyclo[glycyl-β-methylphenylalanyl-O-[4-O-[4,6-O-(3-methoxybenzylidene)hexopyranosyl]-hexopyranosyl]-tyrosyl-3-(2-iminoimidazolidin-4-yl)seryl-3-(3-hexopyranosyl-2-iminoimidazolidin-4-yl)serylseryl]]
MIC Coagulase Negative Staphylococcus (GC 4547) [1, 7]: 1 to 2 µg/mL | MIC Coagulase Negative Staphylococcus (GC 4548) [1, 7]: 0.5 to 2 µg/mL | MIC Coagulase Negative Staphylococcus (GC 4549) [1, 7]: 0.5 to 1 µg/mL | MIC Coagulase Negative Staphylococcus (GC 4551) [1, 7]: 1 to 2 µg/mL | MIC Coagulase Negative Staphylococcus (GC 6257) [1, 7]: 1 µg/mL (≈ 0.708 µM) | MIC Staphylococcus aureus-SMITH (GC 4543) [1, 7]: 1 to 2 µg/mL | MIC Staphylococcus haemolyticus (GC 4546) [1, 7]: 1 µg/mL (≈ 0.708 µM) | MIC Staphylococcus aureus (ATCC 29213) ([1]; strain ATCC 29213): 1 to 2 µg/mL | MIC Staphylococcus aureus (ATCC 29213) ([1]; strain ATCC 29213, broth dilution, 18 hours at 35° C.): 1 to 2 µg/mL | MIC Staphylococcus aureus (GC 1131) ([1]; strain GC 1131): 2 µg/mL (≈ 1.42 µM) | MIC Staphylococcus aureus (GC 1131) ([1]; strain GC 1131, broth dilution, 18 hours at 35° C.): 2 µg/mL (≈ 1.42 µM) | MIC Staphylococcus aureus (GC 3051) ([1]; strain GC 3051): 1 to 2 µg/mL | MIC Staphylococcus aureus (GC 3051) ([1]; strain GC 3051, broth dilution, 18 hours at 35° C.): 1 to 2 µg/mL | MIC Staphylococcus aureus (GC 3053) ([1]; strain GC 3053): 2 to 4 µg/mL | MIC Staphylococcus aureus (GC 3053) ([1]; strain GC 3053, broth dilution, 18 hours at 35° C.): 2 to 4 µg/mL | MIC Staphylococcus aureus (GC 4541) ([1]; strain GC 4541): 1 to 2 µg/mL | MIC Staphylococcus aureus (GC 4541) ([1]; strain GC 4541, broth dilution, 18 hours at 35° C.): 1 to 2 µg/mL | MIC Staphylococcus aureus (GC 4542) ([1]; strain GC 4542): 1 to 2 µg/mL | MIC Staphylococcus aureus (GC 4542) ([1]; strain GC 4542, broth dilution, 18 hours at 35° C.): 1 to 2 µg/mL | MIC Staphylococcus aureus-SMITH (GC 4543) ([1]; strain GC 4543, broth dilution, 18 hours at 35° C.): 1 to 2 µg/mL | MIC Staphylococcus aureus (GC 4544) ([1]; strain GC 4544): 2 µg/mL (≈ 1.42 µM) | MIC Staphylococcus aureus (GC 4544) ([1]; strain GC 4544, broth dilution, 18 hours at 35° C.): 2 µg/mL (≈ 1.42 µM) | MIC Staphylococcus aureus (GC 4545) ([1]; strain GC 4545): <2 to 4 µg/mL | MIC Staphylococcus aureus (GC 4545) ([1]; strain GC 4545, broth dilution, 18 hours at 35° C.): 2 to 4 µg/mL | MIC Staphylococcus haemolyticus (GC 4546) ([1]; strain GC 4546, broth dilution, 18 hours at 35° C.): 1 µg/mL (≈ 0.708 µM) | MIC Coagulase Negative Staphylococcus (GC 4547) ([1]; strain GC 4547, broth dilution, 18 hours at 35° C.): 1 to 2 µg/mL | MIC Coagulase Negative Staphylococcus (GC 4548) ([1]; strain GC 4548, broth dilution, 18 hours at 35° C.): 0.5 to 2 µg/mL | MIC Coagulase Negative Staphylococcus (GC 4549) ([1]; strain GC 4549, broth dilution, 18 hours at 35° C.): 0.5 to 1 µg/mL | MIC Coagulase Negative Staphylococcus (GC 4551) ([1]; strain GC 4551, broth dilution, 18 hours at 35° C.): 1 to 2 µg/mL | MIC Coagulase Negative Staphylococcus (GC 6257) ([1]; strain GC 6257, broth dilution, 18 hours at 35° C.): 1 µg/mL (≈ 0.708 µM) | MIC Enterococccus avium (GC 4558) ([2]; broth dilution, 5×10^5 CFU/mL): 4 to 8 µg/mL | MIC Enterococccus faecalis (ATCC 29212) ([2]; broth dilution, 5×10^5 CFU/mL): 4 to 8 µg/mL | MIC Enterococccus faecalis (GC 2691) ([2]; broth dilution, 5×10^5 CFU/mL): 4 to 8 µg/mL | MIC Enterococccus faecalis (GC 3059) ([2]; broth dilution, 5×10^5 CFU/mL): 4 to 8 µg/mL | MIC Enterococccus faecalis (GC 4552) ([2]; broth dilution, 5×10^5 CFU/mL): 4 to 8 µg/mL | MIC Enterococccus faecalis (GC 4553) ([2]; broth dilution, 5×10^5 CFU/mL): 4 to 8 µg/mL | MIC Enterococccus faecalis (GC 4554) ([2]; broth dilution, 5×10^5 CFU/mL): 4 to 8 µg/mL | MIC Enterococccus faecalis (GC 6189) ([2]; broth dilution, 5×10^5 CFU/mL): 4 µg/mL (≈ 2.83 µM) | MIC Enterococccus faecium (GC 2243) ([2]; broth dilution, 5×10^5 CFU/mL): 4 to 8 µg/mL | MIC Enterococccus faecium (GC 4556) ([2]; broth dilution, 5×10^5 CFU/mL): 4 to 8 µg/mL | MIC Enterococccus faecium (GC 4557) ([2]; broth dilution, 5×10^5 CFU/mL): 2 to 4 µg/mL | MIC Enterococcus faecalis (GC 2242) ([2]; broth dilution, 5×10^5 CFU/mL): 4 to 8 µg/mL | MIC Streptococcus agalactiae (GC 4564) ([3]; broth dilution, 5×10^5 CFU/mL): 0.5 µg/mL (≈ 0.354 µM) | MIC Streptococcus pneumoniae (GC 1894) ([3]; broth dilution, 5×10^5 CFU/mL): <0.06 µg/mL | MIC Streptococcus pneumoniae (GC 4565) ([3]; broth dilution, 5×10^5 CFU/mL): 0.25 µg/mL (≈ 0.177 µM) | MIC Streptococcus pneumonine (ATCC 6301) ([3]; broth dilution, 5×10^5 CFU/mL): 0.12 µg/mL (≈ 0.0849 µM) | MIC Streptococcus pyogenes (GC 4563) ([3]; broth dilution, 5×10^5 CFU/mL): 0.25 µg/mL (≈ 0.177 µM) | MIC Escherichia coli (ATCC 25922) ([4]; 5×10^5 CFU/mL): 64 µg/mL (≈ 45.3 µM) | MIC Escherichia coli (GC 4560) ([4]; 5×10^5 CFU/mL): 1 µg/mL (≈ 0.708 µM) | median effective dose (ED50), Staphylococcus aureus-SMITH (GC 4543) [5]: 0.24 mg/kg
